Activity calls are given as the source filed them. The rule behind the calls is not given here.
Assays:
[1] = tested on: RKO; assay: cells; conditions: Homo sapiens, 96 h
[2] = tested on: RKO; assay: Induction of apoptosis in human RKO cells assessed as late apoptotic cells at 12.5 uM measured after 48 hrs by Annexin V-FITC/PI staining based flow cytometry analysis (reference value: 0.82 %); format: functional
[3] = tested on: RKO; assay: Upregulation of p21 gene expression in human RKO cells incubated for 24 hrs by qPCR analysis; format: functional, cell-based; conditions: dose 0.3125-2.5 µM, DDE = dose-dependent effect
[4] = tested on: RKO; assay: Induction of apoptosis in human RKO cells assessed as necrotic cells at 6.25 uM measured after 48 hrs by Annexin V-FITC/PI staining based flow cytometry analysis (reference value: 2.08 %); format: functional
[5] = tested on: RKO; assay: Antitumor activity against human RKO cells xenografted in BALB/c mouse assessed as tumor growth inhibition at 100 mg/kg, po bid administered via gavage for 21 consecutive days and measured on day 21 relative to control; format: functional; conditions: 504 h, time 21 day, read-out: TGI
[6] = tested on: RKO; assay: Induction of apoptosis in human RKO cells assessed as late apoptotic cells at 6.25 uM measured after 48 hrs by Annexin V-FITC/PI staining based flow cytometry analysis (reference value: 0.82 %); format: functional
[7] = AUC in ICR mouse at 15 mg/kg, po measured upto 24 hrs by LC-MS/MS analysis; format: ADME, organism-based; set-up: time < 24 hrs, dose 15 mg/kg, route po; conditions: in vivo
[8] = target: Cyclin-dependent kinase inhibitor 1 (Homo sapiens) (UniProt P38936); assay: Activation of p21 in human HCT-116 cells incubated for 24 hrs by Western blot analysis; format: cell-based; conditions: filed as activator, dose 0.078125-2.5 µM, DDE = dose-dependent effect
Chain of Cyclin-dependent kinase inhibitor 1 (Homo sapiens) (P38936 whole entry): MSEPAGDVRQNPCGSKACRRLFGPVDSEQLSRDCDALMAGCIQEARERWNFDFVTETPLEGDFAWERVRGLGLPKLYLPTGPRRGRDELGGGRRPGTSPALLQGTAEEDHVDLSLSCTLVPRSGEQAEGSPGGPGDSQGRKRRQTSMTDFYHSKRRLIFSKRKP

[9] = tested on: HCT-116; assay: Upregulation of MDM2 protein expression in human HCT-116 cells at 2.5 uM measured after 24 hrs by Western blot analysis; format: functional, cell-based
[10] = tested on: MCF7; assay: Upregulation of MDM2 protein expression in human MCF7 cells at 2.5 uM measured after 24 hrs by Western blot analysis; format: functional, cell-based
[11] = tested on: RKO; assay: Upregulation of p53 expression in human RKO cells incubated for 24 hrs by Western blot analysis; format: functional, cell-based; conditions: dose 0.3125-2.5 µM, DDE = dose-dependent effect
[12] = tested on: NCI-H460; assay: Upregulation of p21 protein expression in human NCI-H460 cells at 2.5 uM measured after 24 hrs by Western blot analysis; format: functional, cell-based
[13] = tested on: RKO; assay: Upregulation of MDM2 expression in human RKO cells incubated for 24 hrs by Western blot analysis; format: functional, cell-based; conditions: dose 0.3125-2.5 µM, DDE = dose-dependent effect
[14] = tested on: HCT-116; assay: cells; conditions: Homo sapiens, HCT-116, 96 h
[15] = tested on: RKO; assay: Downregulation of MDM4 expression in human RKO cells at 0.3125 to 2.5 uM incubated for 24 hrs by Western blot analysis; format: functional, cell-based; conditions: dose 0.3125-2.5 µM
[16] = tested on: HCT-116; assay: Induction of PARP cleavage in human HCT-116 cells incubated for 24 hrs by Western blot analysis; format: functional, cell-based; conditions: dose 0.078125-2.5 µM, DDE = dose-dependent effect
[17] = tested on: SW480; assay: cells; conditions: Homo sapiens, SW480, 96 h
[18] = tested on: HCT-116; assay: Upregulation of p21 protein expression in human HCT-116 cells at 2.5 uM measured after 24 hrs by Western blot analysis; format: functional, cell-based
[19] = tested on: RKO; assay: Upregulation of PUMA gene expression in human RKO cells incubated for 24 hrs by qPCR analysis; format: functional, cell-based; conditions: dose 0.3125-2.5 µM, DDE = dose-dependent effect
[20] = tested on: RKO; assay: Induction of apoptosis in human RKO cells assessed as viable cells at 6.25 uM measured after 48 hrs by Annexin V-FITC/PI staining based flow cytometry analysis (reference value: 93.54 %); format: functional; conditions: read-out: Activity
[21] = tested on: NCI-H460; assay: Downregulation of MDM4 protein expression in human NCI-H460 cells at 2.5 uM measured after 24 hrs by Western blot analysis; format: functional, cell-based
[22] = species on record: Homo sapiens; assay: Potency index, ratio of RG7388 Ki to test compound Ki for displacement of 5-FAM labeled PDI peptide from MDM4 C17S mutant (14 to 111 residues) (unknown origin) expressed in Escherichia coli BL21 (DE3) assessed as inhibition constant incubated for 1.5 hrs by fluorescence polarization competition assay
[23] = tested on: MCF7; assay: cells; conditions: Homo sapiens, MCF7, 96 h
[24] = tested on: MCF7; assay: Upregulation of p21 protein expression in human MCF7 cells at 2.5 uM measured after 24 hrs by Western blot analysis; format: functional, cell-based
[25] = tested on: U2OS; assay: Effect on MDM4 protein expression in human U2OS cells at 2.5 uM measured after 24 hrs by Western blot analysis; format: functional, cell-based
[26] = tested on: RKO; assay: Induction of apoptosis in human RKO cells assessed as early apoptotic cells at 25 uM measured after 48 hrs by Annexin V-FITC/PI staining based flow cytometry analysis (reference value: 3.56 %); format: functional
[27] = tested on: RKO; assay: Induction of apoptosis in human RKO cells assessed as early apoptotic cells at 6.25 uM measured after 48 hrs by Annexin V-FITC/PI staining based flow cytometry analysis (reference value: 3.56 %); format: functional
[28] = tested on: RKO; assay: Induction of apoptosis in human RKO cells assessed as necrotic cells at 25 uM measured after 48 hrs by Annexin V-FITC/PI staining based flow cytometry analysis (reference value: 2.08 %); format: functional
[29] = tested on: HCT-116; assay: Upregulation of p53 protein expression in human HCT-116 cells at 2.5 uM measured after 24 hrs by Western blot analysis; format: functional, cell-based
[30] = Cmax in ICR mouse at 15 mg/kg, po measured upto 24 hrs by LC-MS/MS analysis; format: ADME, organism-based; set-up: time < 24 hrs, dose 15 mg/kg, route po; conditions: in vivo
[31] = tested on: NCI-H460; assay: Upregulation of p53 protein expression in human NCI-H460 cells at 2.5 uM measured after 24 hrs by Western blot analysis; format: functional, cell-based
[32] = tested on: RKO; assay: Induction of apoptosis in human RKO cells assessed as viable cells at 25 uM measured after 48 hrs by Annexin V-FITC/PI staining based flow cytometry analysis (reference value: 93.54 %); format: functional; conditions: read-out: Activity
[33] = tested on: RKO; assay: Induction of apoptosis in human RKO cells assessed as viable cells at 12.5 uM measured after 48 hrs by Annexin V-FITC/PI staining based flow cytometry analysis (reference value: 93.54 %); format: functional; conditions: read-out: Activity
[34] = target: E3 ubiquitin-protein ligase Mdm2 (Homo sapiens, UniProt Q00987); assay: Displacement of 5-FAM labeled PDI peptide from MDM2 (1 to 118 residues) (unknown origin) expressed in Escherichia coli BL21 (DE3) assessed as inhibition constant incubated for 1.5 hrs by fluorescence polarization competition assay
Chain of E3 ubiquitin-protein ligase Mdm2 (Q00987 whole entry, the tested form may be a part): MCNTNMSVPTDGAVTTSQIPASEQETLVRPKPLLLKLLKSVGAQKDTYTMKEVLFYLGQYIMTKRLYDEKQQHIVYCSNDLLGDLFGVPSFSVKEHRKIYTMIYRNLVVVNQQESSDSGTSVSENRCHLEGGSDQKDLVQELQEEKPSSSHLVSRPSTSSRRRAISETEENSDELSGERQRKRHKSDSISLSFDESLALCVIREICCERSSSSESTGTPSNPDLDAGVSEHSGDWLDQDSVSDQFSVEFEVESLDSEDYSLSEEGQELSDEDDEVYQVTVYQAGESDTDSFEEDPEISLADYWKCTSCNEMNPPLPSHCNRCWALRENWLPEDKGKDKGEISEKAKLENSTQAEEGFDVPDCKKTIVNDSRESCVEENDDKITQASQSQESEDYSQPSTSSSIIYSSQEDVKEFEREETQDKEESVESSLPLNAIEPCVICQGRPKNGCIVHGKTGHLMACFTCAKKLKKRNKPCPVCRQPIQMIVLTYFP

[35] = tested on: RKO; assay: Induction of apoptosis in human RKO cells assessed as early apoptotic cells at 12.5 uM measured after 48 hrs by Annexin V-FITC/PI staining based flow cytometry analysis (reference value: 3.56 %); format: functional
[36] = tested on: NCI-H460; assay: Upregulation of MDM2 protein expression in human NCI-H460 cells at 2.5 uM measured after 24 hrs by Western blot analysis; format: functional, cell-based
[37] = tested on: RKO; assay: Induction of apoptosis in human RKO cells assessed as necrotic cells at 12.5 uM measured after 48 hrs by Annexin V-FITC/PI staining based flow cytometry analysis (reference value: 2.08 %); format: functional
[38] = Oral bioavailability in ICR mouse at 15 mg/kg measured upto 24 hrs by LC-MS/MS analysis; format: ADME, organism-based; conditions: in vivo

For `COc1cc(C(=O)O)ccc1NC(=O)[C@@H]1N[C@@H](CC(C)(C)C)[C@](CNCc2ccncc2)(c2ccc(Cl)cc2F)[C@H]1c1cccc(Cl)c1F`, the IC50 [1] was 200 nM, the Activity [2] was 3.81% and the Activity [3] was “Dde”. The Activity [4] was 16.09%, the inhibition in vivo at 100 mg/kg [5] was 18% and the Activity [6] was 3.15%. The AUC at 24 h [7] was 1990 ng·h/mL, the Activity [8] was “Dde” and the Activity [9] was “Active”. The Activity [10] was “Active”, the Activity [11] was “Dde” and the Activity [12] was “Active”. The Activity [13] was “Dde”, the IC50 [14] was 50.7 nM and the Activity [15] was “Active”. The Activity [16] was “Dde”, the IC50 [17] was 2820 nM and the Activity [18] was “Active”. The Activity [19] was “Dde”, the viability at 6.25 µM [20] was 74.5% and the Activity [21] was “Active”. For the same molecule, the Ratio Ki [22] was 6, the IC50 [23] was 520 nM and the Activity [24] was “Active”. The Activity [25] was “Active”, the Activity [26] was 34.16% and the Activity [27] was 6.28%. For the same molecule, the Activity [28] was 1.31%, the Activity [29] was “Active” and the Cmax [30] was 1080 ng/mL. For the same molecule, the Activity [31] was “Active”, the viability at 25 µM [32] was 7.52% and the viability at 12.5 µM [33] was 85%. The Ki [34] was 1.1 nM, the Activity [35] was 9.54% and the Activity [36] was “Active”. For the same molecule, the Activity [37] was 1.6% and the bioavailability [38] was 13.5%.

Reference: ChEMBL document CHEMBL5154862, “Structure-Based Discovery of MDM2/4 Dual Inhibitors that Exert Antitumor Activities against MDM4-Overexpressing Cancer Cells” (J Med Chem, 2022)
